# Source: the supplement of paper PMC10307832
# Key:
# Test in all cases: relative viability (nuclei count vs DMSO), 5 days (fraction); higher = more cells survive
# [1] = compound: Cc1ccc2nc(NCCN)c3ncc(C)n3c2c1 + CS(=O)(=O)CCNCc1ccc(-c2ccc3ncnc(Nc4ccc(OCc5cccc(F)c5)c(Cl)c4)c3c2)o1 [Lapatinib] (partner 2 µM)
# In short: (§1)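 A single step with final 0.05% Triton X-100, 1% formaldehyde and 1 ug/ml Hoechst fixed the cells and stained nuclei 5 days after treatment. Lung cancer cell lines in 1536-well plates had been treated by pin tool the day after seeding with one drug alone or a fixed anchor-drug dose plus five library-drug doses (not always all listed) in √10 steps, and nuclei were counted on 4× images. Relative viability is the ratio of nuclei in treated wells to nuclei in vehicle wells, taken as the median of duplicate plates.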
# [2] = compound: Cc1ccc2nc(NCCN)c3ncc(C)n3c2c1 + Cc1nc(Nc2ncc(C(=O)Nc3c(C)cccc3Cl)s2)cc(N2CCN(CCO)CC2)n1 [Dasatinib] (partner 0.075 µM)
# In short: as §1
# Salubrinal + Crizotinib = compound: O=C(/C=C/c1ccccc1)NC(NC(=S)Nc1cccc2cccnc12)C(Cl)(Cl)Cl [Salubrinal] + C[C@@H](Oc1cc(-c2cnn(C3CCNCC3)c2)cnc1N)c1c(Cl)ccc(F)c1Cl [Crizotinib] (partner 1 µM)
# In short: as §1
# Salubrinal + Olaparib = compound: O=C(/C=C/c1ccccc1)NC(NC(=S)Nc1cccc2cccnc12)C(Cl)(Cl)Cl [Salubrinal] + O=C(c1cc(Cc2n[nH]c(=O)c3ccccc23)ccc1F)N1CCN(C(=O)C2CC2)CC1 [Olaparib] (partner 8 µM)
# In short: as §1
Cell Line,relative viability ([1]; first compound 0.04 µM),relative viability ([1]; first compound 0.1265 µM),relative viability ([1]; first compound 0.4 µM),relative viability ([1]; first compound 1.265 µM),relative viability ([1]; first compound 4 µM),relative viability ([2]; first compound 0.04 µM),relative viability ([2]; first compound 0.1265 µM),relative viability ([2]; first compound 0.4 µM),relative viability ([2]; first compound 1.265 µM),relative viability ([2]; first compound 4 µM),relative viability (Salubrinal + Crizotinib; first compound 0.08 µM),relative viability (Salubrinal + Crizotinib; first compound 0.253 µM),relative viability (Salubrinal + Crizotinib; first compound 0.8 µM),relative viability (Salubrinal + Crizotinib; first compound 2.53 µM),relative viability (Salubrinal + Crizotinib; first compound 8 µM),relative viability (Salubrinal + Olaparib; first compound 0.08 µM),relative viability (Salubrinal + Olaparib; first compound 0.253 µM),relative viability (Salubrinal + Olaparib; first compound 0.8 µM),relative viability (Salubrinal + Olaparib; first compound 2.53 µM),relative viability (Salubrinal + Olaparib; first compound 8 µM)
NCI-H596,1.12,1.11,1.31,0.962,1.05,0.677,0.645,0.524,0.524,0.648,1.07,0.901,1.07,1.02,1.05,0.768,0.525,0.597,0.668,0.581
A-427,1.13,1.06,1.02,0.957,1.06,0.682,0.654,0.644,0.632,0.628,0.896,0.899,1.05,0.85,0.895,0.751,0.7,0.793,0.682,0.744
EMC-BAC-2,0.915,0.875,0.847,0.918,0.851,0.339,0.335,0.345,0.276,0.307,0.749,0.676,0.811,0.721,0.76,0.496,0.513,0.525,0.466,0.525
NCI-H441,,,,,,0.556,0.552,0.551,0.673,0.445,0.689,0.665,0.73,0.766,0.652,0.732,0.448,0.675,0.542,0.514
LCLC-103H,,,,,,0.584,0.495,0.421,0.562,0.442,1.07,1.06,1.05,1.07,0.984,0.866,0.572,0.853,0.769,0.76
NCI-H1793,0.942,0.697,0.734,0.581,0.737,0.386,0.417,0.389,0.332,0.384,,,,,,1.09,0.948,0.876,0.979,0.751
NCI-H1703,1.15,0.958,1.03,1.19,0.997,,,,,,0.535,,1.06,0.701,0.576,0.414,0.721,0.416,0.486,0.385
Calu-6,1.09,1.03,1.07,1.07,0.737,,,,,,0.949,0.644,0.898,0.821,0.728,0.632,0.522,0.723,0.591,0.453
EBC-1,0.207,0.201,0.233,0.179,0.191,,,,,,0.207,0.214,0.22,0.211,0.18,0.787,0.616,0.73,0.604,0.585
NCI-H2342,,,,,,0.363,0.363,0.328,0.284,0.313,,,,,,0.456,0.45,0.455,0.432,0.497
NCI-H1563,0.963,1,0.88,1.15,0.88,0.459,0.488,0.539,0.433,0.454,0.853,0.859,0.878,0.851,0.962,,,,,
NCI-H1623,,,,,,0.525,0.664,0.523,0.482,0.494,,,,,,,,,,
NCI-H1299,0.957,0.935,0.954,0.911,0.809,,,,,,0.993,0.802,0.943,0.99,0.925,0.98,0.947,0.993,0.951,0.936
NCI-H1395,0.936,0.917,0.958,0.994,0.803,0.48,0.425,0.374,0.37,0.407,,,,,,0.445,0.448,0.411,0.466,0.437
NCI-H522,,,,,,0.882,0.966,0.827,0.806,0.842,,,,,,0.565,0.648,0.701,0.686,0.637
A549,1.23,0.941,0.918,1,0.83,,,,,,0.864,0.491,0.902,0.702,0.695,0.226,0.344,0.438,0.31,0.287
NCI-H1648,,,,,,,,,,,,,,,,0.751,1.03,0.476,1.02,0.594
SW 900,,,,,,0.419,0.759,,0.459,0.408,,,,,,1.04,1.07,0.892,0.793,0.801
IA-LM,1.02,0.833,0.581,1,0.7,,,,,,0.784,0.602,1.19,0.767,0.575,0.842,0.83,0.935,0.704,0.72
ChaGo-K-1,,,,,,0.551,0.659,0.659,0.504,0.566,1.25,0.927,1.44,1.1,0.929,0.46,0.404,0.449,0.395,0.383
HCC-44,0.961,0.993,1.01,0.99,1.01,,,,,,0.833,0.801,0.863,0.748,0.759,1,0.968,1.03,0.957,1.03
